These results are taken from patent US4049808A, “2-Phenyl ethyl morpholine compounds” (Imperial Chemical Industries Limited, priority 1974, dated 1977).

As a reminder, the LD50 is the dose at which mortality reaches 50%. A low value points to a more toxic substance.

The nature of one data set: Oral LD50 in mice. The following applies: mouse, in vivo.
The subject of data set [1] is reserpine-induced hypothermia. Briefly: Reversal of reserpine-induced hypothermia in mice (RHL test). Format: in vivo. The following applies: reserpine 2 mg./kg. s.c., T0 to T4 (4 hours). The protocol: The reversal of reserpine-induced hypothermia, known as the RHL test, is carried out as follows:
Mice are kept in a constant temperature room maintained at 21 ± 1° C. Each member of groups of 4 mice is given reserpine (2 mg. of base per kg. bodyweight, given subcutaneously as the acetate). Seventeen hours later the oesophageal temperature (T0) of each mouse is recorded by means of an orally-inserted probe coupled to an electric thermometer which is calibrated in degrees Centrigrade and which can be read to 0.1° C. Immediately after the temperature measurement the mice are dosed orally with the test compound, or with imipramine, each mouse in a group of 4 being given the same substance, and the oesophageal temperatures are again recorded after 4 hours (T4). The compound under test is dosed at serial dilutions, e.g. 100, 30, 10, 3, 1, 0.3, 0.1 mg./kg. Imipramine is used as the control. […] At 1 mg./kg. it produces an average rise of 1.7° C. A test compound which at a certain does level gives a rise in temperature equal to or greater than that given by 1 mg./kg. of imipramine, dosed to a different set of mice on the same day, is adjudged "active" at that dose.

With `Cc1ccccc1CCC1CNCCO1` (stereo not drawn) [2-[β-(2-methylphenyl)ethyl]morpholine], the median lethal dose (LD50) in the data set “Oral LD50 in mice” amounted to 550 mg/kg. On to `c1ccc(Oc2ccccc2CCC2CNCCO2)cc1` (stereo not drawn) [2-[β-(2-phenoxyphenyl)ethyl]morpholine], for which, in the data set “Oral LD50 in mice”, the 50% lethal dose (LD50) came out at 1000 mg/kg. Regarding `CN(C)CCCN1c2ccccc2CCc2ccccc21` [imipramine], the “average rise in the temperature of a reserpinised mouse” value in data set [1] (imipramine 1 mg./kg. oral) stood at 1.7 °C; in data set [1] (imipramine 3 mg./kg. oral), 3 °C.
